The text below walks through data of ChEMBL document CHEMBL1154027, “Imidazopyridine derivatives as potent and selective Polo-like kinase (PLK) inhibitors” (Bioorg Med Chem Lett, 2009).

Each structure is given as a SMILES string.

One data set in a line: Plasma concentration in F344/NJcl-rnu nude rat at 0.60 mg/kg after 48 hrs. The data set is classed as ADME, organism-based. Details: dose 0.6 mg/kg. Particulars: 0.6 mg/kg.
The molecule `C[C@@H](Oc1cc(-c2cnc3ccccn23)sc1C(N)=O)c1ccc(CNC(C)(C)C)cc1OC(F)F` came in with a concentration at 48 h of 80 nM.

The nature of a further data set: Lipophilicity, Log D of the compound. The data set is classed as physicochemical. Particulars: octanol/water.
`C[C@@H](Oc1cc(-c2cnc3ccccn23)sc1C(N)=O)c1ccc(CNC(C)(C)C)cc1Cl` returned a log distribution coefficient (logD) of 2.9. Regarding `NC(=O)c1sc(-c2cnn3ccccc23)cc1OCc1ccccc1C(F)(F)F`, the logD was 4.8. Molecule `CC(Oc1cc(-c2cnc3ccccn23)sc1C(N)=O)c1cc(CO)ccc1Cl` (stereo unspecified) returned a logD of 3.7. The same measure, in the same setting: in the case of `C[C@@H](Oc1cc(-c2cnc3ccccn23)sc1C(N)=O)c1ccc(CN2CCN(C)CC2)cc1Cl` it was 2.8. Same read-out and setting: in the case of `C[C@@H](Oc1cc(-c2cnc3ccccn23)sc1C(N)=O)c1ccc(CNC2CCCC2)cc1Cl` it was 3.5; in that of `C[C@@H](Oc1cc(-c2cnc3ccccn23)sc1C(N)=O)c1ccccc1CO`, 3.2; in that of `C[C@@H](Oc1cc(-c2cnc3ccccn23)sc1C(N)=O)c1ccc(CO)cc1Cl`, 3.8. For the molecule `C[C@@H](Oc1cc(-c2cnc3ccccn23)sc1C(N)=O)c1ccccc1Cl`, the logD stood at 4.8. Same read-out and setting: in the case of `C[C@@H](Oc1cc(-c2cnc3ccc(CO)cn23)sc1C(N)=O)c1ccccc1Cl` it was 4.2.

The molecule `C[C@@H](Oc1cc(-c2cnc3ccccn23)sc1C(N)=O)c1ccc(CN(C)C)cc1Cl` yielded a logD of 2.9. Same read-out and setting: under `C[C@@H](Oc1cc(-c2cnc3ccccn23)sc1C(N)=O)c1ccc(CNC(C)(C)CO)cc1Cl` stands 2.9; under `C[C@@H](Oc1cc(-c2cnc3ccccn23)sc1C(N)=O)c1ccc(CN2CCNC(=O)C2)cc1Cl`, 2.8; under `C[C@@H](Oc1cc(-c2cnc3ccccn23)sc1C(N)=O)c1ccc(CN2CCC(O)CC2)cc1Cl`, 3.3.

As for `C[C@@H](Oc1cc(-c2cnc3ccccn23)sc1C(N)=O)c1ccc(CNCCO)cc1Cl`, the logD came out at 2.4.

For `CNCc1ccc([C@@H](C)Oc2cc(-c3cnc4ccccn34)sc2C(N)=O)c(Cl)c1`, the pH-dependent lipophilicity (logD) is 1.9. As to `C[C@@H](Oc1cc(-c2cnc3ccccn23)sc1C(N)=O)c1ccc(CN2CCS(=O)(=O)CC2)cc1Cl`, the logD was 3.2. Same read-out and setting: under `C[C@@H](Oc1cc(-c2cnc3ccccn23)sc1C(N)=O)c1ccc(CN2CCC(F)CC2)cc1Cl` stands 3.7. Same read-out and setting: under `C[C@@H](Oc1cc(-c2cnc3ccccn23)sc1C(N)=O)c1ccc(CNCCCO)cc1Cl` stands 2.1; under `CC(Oc1cc(-c2cnc3cc(CO)ccn23)sc1C(N)=O)c1ccccc1Cl` (racemic), 4.1.

`NC(=O)c1sc(-c2cnc3ccccn23)cc1OCc1ccccc1C(F)(F)F` came in with a logD of 4.2. Still for that read-out and setting: in the case of `C[C@@H](Oc1cc(-c2cnc3ccccn23)sc1C(N)=O)c1ccc(CNC(C)(C)C)cc1OC(F)F` it was 2.7. On the same count and under the same terms, under `C[C@@H](Oc1cc(-c2cnc3ccccn23)sc1C(N)=O)c1ccc(CNC(C)(C)C)cc1C(F)F` stands 2.6.

Molecule `NC(=O)c1sc(-c2cnc3ccccn23)cc1OCc1ccccc1Cl` registered a log distribution coefficient (logD) of 4.1. Still for that read-out and setting: in the case of `C[C@@H](Oc1cc(-c2cnc3ccccn23)sc1C(N)=O)c1ccc(CNC2CC2)cc1Cl` it was 3.6; in that of `C[C@@H](Oc1cc(-c2cnc3ccccn23)sc1C(N)=O)c1ccc(CN2CCC(O)C2)cc1Cl` (stereo partly specified), 3.3. On the same count and under the same terms, under `CC(C)NCc1ccc([C@@H](C)Oc2cc(-c3cnc4ccccn34)sc2C(N)=O)c(Cl)c1` stands 2.3; under `CCNCc1ccc([C@@H](C)Oc2cc(-c3cnc4ccccn34)sc2C(N)=O)c(Cl)c1`, 2.8; under `NC(=O)c1sc(-n2cnc3ccccc32)cc1OCc1ccccc1C(F)(F)F`, 4.6.

As for `C[C@@H](Oc1cc(-c2cnc3ccccn23)sc1C(N)=O)c1ccc(CNC(C)(C)C)cc1F`, the logD turned out to be 2.2.

A short description of the next data set: Plasma concentration in F344/NJcl-rnu nude rat at 0.45 mg/kg after 48 hrs. It is filed as ADME, organism-based. On the set-up: dose 0.45 mg/kg.
Details: not given
`C[C@@H](Oc1cc(-c2cnc3ccccn23)sc1C(N)=O)c1ccc(CNC(C)(C)C)cc1OC(F)F` yielded a concentration at 48 h of 50 nM.

Broadly, the logD is the decadic logarithm of the distribution of all forms, ionised or not, between an organic phase and buffer at a given pH. A higher logD goes with a more lipophilic compound.
